Measurements: ChEMBL document CHEMBL1201862, “PubChem BioAssay data set” (2004)
Values belong to the compound of their own block, whether it stands above or below them. The source made the active and inactive calls.

Assays:
[1] = target: T1, Voltage-gated N-type calcium channel alpha-1B subunit/Amyloid beta A4 precursor protein-binding family A member 1 (Homo sapiens, UniProt Q00975+Q02410); experiment: disruptors of Mint-PDZ/N-type channel peptide interaction – biochemical, HTRF, SAR follow-up (AID 2489); assay type: functional
[2] = target: T1, Voltage-gated N-type calcium channel alpha-1B subunit/Amyloid beta A4 precursor protein-binding family A member 1; experiment: disruptors of Mint-PDZ/N-type channel peptide interaction – biochemical, HTRF, set 2, SAR follow-up (AID 434980); assay type: functional
[3] = system: HEK293; experiment: SAR analysis of compounds that are cytotoxic to HEK293 - Set 3. [Related pubchem assays (depositor defined):AID1575, AID1578, AID1848, AID1849, AID2001, AID2333, AID2334, AID2335, AID2337, AID2469]; assay type: functional, cell-based; settings: Homo sapiens
[4] = system: HEK293; experiment: cells; settings: Homo sapiens
[5] = target: Tumor necrosis factor (Homo sapiens, UniProt P01375); experiment: analog potency on TNFa NF-kB signaling – cell-based, revised, SAR follow-up (AID 2337); assay type: functional
[6] = target: Interleukin-8 (Homo sapiens, UniProt P10145); experiment: SAR analysis of tumor necrosis factor alpha (TNF-alpha) induced IL-8 secretion in MCF-7/NOD1 cells. [Related pubchem assays (depositor defined):AID1575, AID2250, AID2260]; assay type: functional, cell-based
[7] = target: Alkaline phosphatase, placental type (Homo sapiens, UniProt P05187); experiment: human placental alkaline phosphatase inhibition – biochemical, luminescence, confirmation (AID 1512); assay type: functional
[8] = target: Glyceraldehyde-3-phosphate dehydrogenase (Homo sapiens, UniProt P04406)
[9] = target: T2, Alkaline phosphatase, tissue-nonspecific isozyme (Homo sapiens, UniProt P05186); experiment: potency against alkaline phosphatase TNAP – biochemical, luminescent, dose response, SAR follow-up (AID 1056)
T2 sequence (P05186 whole entry): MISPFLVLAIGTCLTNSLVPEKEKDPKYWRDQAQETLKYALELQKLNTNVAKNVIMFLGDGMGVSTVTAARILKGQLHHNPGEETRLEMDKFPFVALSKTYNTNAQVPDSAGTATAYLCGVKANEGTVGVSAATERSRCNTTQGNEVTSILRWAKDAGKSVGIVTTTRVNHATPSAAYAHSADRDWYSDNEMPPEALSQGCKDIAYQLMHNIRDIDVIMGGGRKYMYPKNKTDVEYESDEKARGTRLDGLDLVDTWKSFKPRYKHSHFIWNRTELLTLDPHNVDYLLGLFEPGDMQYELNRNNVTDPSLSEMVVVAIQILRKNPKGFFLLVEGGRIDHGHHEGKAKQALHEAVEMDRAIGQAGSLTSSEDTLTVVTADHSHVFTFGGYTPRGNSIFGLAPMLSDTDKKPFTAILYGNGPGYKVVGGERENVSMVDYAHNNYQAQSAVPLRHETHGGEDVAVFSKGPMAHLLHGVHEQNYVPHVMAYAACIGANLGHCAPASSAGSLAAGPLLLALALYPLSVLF

[10] = target: Scavenger receptor class B member 1 (Mus musculus, UniProt Q61009); experiment: mouse SR-BI DiI-HDL uptake blockers – ldlA[mSR-BI] cells, fluorescence, cherry pick, dose response (AID 493194); assay type: functional, cell-based;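 further: cellular uptake of fluorescent DiI-labeled HDL measured as cell fluorescence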
[11] = viability of uninfected HEp-2 cells – cell-based, HTS, cytotoxicity control for RSV inhibitor project, dose response (AID 2410); assay type: functional; settings: human respiratory syncytial virus
[12] = target: G-protein coupled receptor 55 (Homo sapiens, UniProt Q9Y2T6); experiment: inhibition of LPI-stimulated GPR55 beta-arrestin translocation – imaging, U2OS, beta-arrestin-GFP, LPI agonist, primary screen (AID 2013); assay type: functional;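 further: antagonist potency measured as reduced agonist-driven arrestin aggregation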
[13] = viability loss in HEK293 cells – cell-based, plate reader, cherry-picked samples, cytotoxicity control, dose response (AID 743446); assay type: functional
[14] = A549 cell cytotoxicity, dose response, cytotoxicity control, plate reader, cherry-pick, antagonist series (AID 743412); assay type: functional, cell-based
[15] = toxicity toward HepG2 liver cells – cell-based, plate reader, cherry-pick, antagonist series, cytotoxicity control, dose response (AID 743416); assay type: functional
[16] = blockade of melanocortin 4 receptor signaling – cell-based, plate reader, cherry pick, counter-screen for LGR2 antagonist project, dose response (AID 743444); assay type: functional;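 further: transfected HEK 293 cells stimulated with alpha-MSH peptide; potency of inhibitors of the alpha-MSH evoked signal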
[17] = target: Acyl-homoserine lactone acylase PvdQ (Pseudomonas aeruginosa (strain LESB58), UniProt Q9I194); experiment: PvdQ acylase enzyme activity blockers – biochemical, fluorescence, plate reader and imaging, cherry-picks, dose response (AID 493231)
[18] = blockers of bursicon-stimulated LGR2 cAMP reporter – cell-based, HEK293, CRE-luciferase reporter, cherry pick, set 2, dose response (AID 743343); assay type: functional;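 further: transfected cells were stimulated with diluted bursicon conditioned medium after compound addition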
[19] = target: Kappa-type opioid receptor (Homo sapiens, UniProt P41145); experiment: SAR analysis of small molecule agonists of the kappa opioid receptor via a luminescent beta-arrestin assay - Set 2. [Related pubchem assays (depositor defined):AID1777, AID1785, AID1786, AID1966, AID2133, AID2136, AID2284, AID449737]; assay type: functional
[20] = viability of PTEN-deleted HCT116 cells – cell-based, HCT116 PTEN knockout, dose response (AID 1047); assay type: functional;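 further: HCT116 colon tumor cells with PTEN knocked out; cells exposed to compound for 60 hours before readout; potency for loss of cell viability measured by luminescence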
[21] = target: DNA damage-inducible transcript 3 protein (Mus musculus, UniProt P35639); assay type: functional, Cricetulus griseus
[22] = target: T3, Small ubiquitin-related modifier 1 (Homo sapiens, UniProt P63165); experiment: SUMO1 protein interaction blockers, potency – biochemical, fluorescence polarization, uHTS hits, dose response (AID 624382); assay type: functional; settings: read-out: IC50_Mean
[23] = target: T3, Small ubiquitin-related modifier 1; experiment: SUMO1 protein-protein binding blockers, potency – biochemical, FRET, dose response (AID 624383); assay type: functional; settings: read-out: IC50_Mean
[24] = viability of HCT116 lacking mutant beta-catenin – cell-based, human colon tumor, dose response (AID 1045); assay type: functional;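 further: HCT116 colon tumor cells with beta catenin knocked out; cells exposed to compound for 60 hours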
[25] = target: Induced myeloid leukemia cell differentiation protein Mcl-1 (Homo sapiens, UniProt Q07820); assay type: functional
[26] = target: Neuropeptides B/W receptor type 1 (Homo sapiens, UniProt P48145); experiment: human NPBW1 receptor blockade, IC50 – cell-based, fluorescence, dose response, late-stage follow-up (AID 463251); assay type: functional
[27] = target: Melanin-concentrating hormone receptor 1 (Homo sapiens, UniProt Q99705); experiment: Late-stage fluorescence-based counterscreen for antagonists of the G-protein coupled receptor 7 (GPR7): cell-based dose response assay to identify antagonists of the melanin-concentrating hormone receptor 1 (MCHR1). [Related pubchem assays (depositor defined):AID1861, AID1880, AID1952, AID2148, AID2251, AID2257, AID485339]; assay type: functional;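 further: stimulated with 30 nM MCH peptide agonist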

T3 sequence (P63165 whole entry): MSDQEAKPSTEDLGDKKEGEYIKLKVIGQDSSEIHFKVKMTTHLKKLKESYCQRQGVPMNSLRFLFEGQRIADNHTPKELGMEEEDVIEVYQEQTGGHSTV
T1 sequence (Q00975 whole entry): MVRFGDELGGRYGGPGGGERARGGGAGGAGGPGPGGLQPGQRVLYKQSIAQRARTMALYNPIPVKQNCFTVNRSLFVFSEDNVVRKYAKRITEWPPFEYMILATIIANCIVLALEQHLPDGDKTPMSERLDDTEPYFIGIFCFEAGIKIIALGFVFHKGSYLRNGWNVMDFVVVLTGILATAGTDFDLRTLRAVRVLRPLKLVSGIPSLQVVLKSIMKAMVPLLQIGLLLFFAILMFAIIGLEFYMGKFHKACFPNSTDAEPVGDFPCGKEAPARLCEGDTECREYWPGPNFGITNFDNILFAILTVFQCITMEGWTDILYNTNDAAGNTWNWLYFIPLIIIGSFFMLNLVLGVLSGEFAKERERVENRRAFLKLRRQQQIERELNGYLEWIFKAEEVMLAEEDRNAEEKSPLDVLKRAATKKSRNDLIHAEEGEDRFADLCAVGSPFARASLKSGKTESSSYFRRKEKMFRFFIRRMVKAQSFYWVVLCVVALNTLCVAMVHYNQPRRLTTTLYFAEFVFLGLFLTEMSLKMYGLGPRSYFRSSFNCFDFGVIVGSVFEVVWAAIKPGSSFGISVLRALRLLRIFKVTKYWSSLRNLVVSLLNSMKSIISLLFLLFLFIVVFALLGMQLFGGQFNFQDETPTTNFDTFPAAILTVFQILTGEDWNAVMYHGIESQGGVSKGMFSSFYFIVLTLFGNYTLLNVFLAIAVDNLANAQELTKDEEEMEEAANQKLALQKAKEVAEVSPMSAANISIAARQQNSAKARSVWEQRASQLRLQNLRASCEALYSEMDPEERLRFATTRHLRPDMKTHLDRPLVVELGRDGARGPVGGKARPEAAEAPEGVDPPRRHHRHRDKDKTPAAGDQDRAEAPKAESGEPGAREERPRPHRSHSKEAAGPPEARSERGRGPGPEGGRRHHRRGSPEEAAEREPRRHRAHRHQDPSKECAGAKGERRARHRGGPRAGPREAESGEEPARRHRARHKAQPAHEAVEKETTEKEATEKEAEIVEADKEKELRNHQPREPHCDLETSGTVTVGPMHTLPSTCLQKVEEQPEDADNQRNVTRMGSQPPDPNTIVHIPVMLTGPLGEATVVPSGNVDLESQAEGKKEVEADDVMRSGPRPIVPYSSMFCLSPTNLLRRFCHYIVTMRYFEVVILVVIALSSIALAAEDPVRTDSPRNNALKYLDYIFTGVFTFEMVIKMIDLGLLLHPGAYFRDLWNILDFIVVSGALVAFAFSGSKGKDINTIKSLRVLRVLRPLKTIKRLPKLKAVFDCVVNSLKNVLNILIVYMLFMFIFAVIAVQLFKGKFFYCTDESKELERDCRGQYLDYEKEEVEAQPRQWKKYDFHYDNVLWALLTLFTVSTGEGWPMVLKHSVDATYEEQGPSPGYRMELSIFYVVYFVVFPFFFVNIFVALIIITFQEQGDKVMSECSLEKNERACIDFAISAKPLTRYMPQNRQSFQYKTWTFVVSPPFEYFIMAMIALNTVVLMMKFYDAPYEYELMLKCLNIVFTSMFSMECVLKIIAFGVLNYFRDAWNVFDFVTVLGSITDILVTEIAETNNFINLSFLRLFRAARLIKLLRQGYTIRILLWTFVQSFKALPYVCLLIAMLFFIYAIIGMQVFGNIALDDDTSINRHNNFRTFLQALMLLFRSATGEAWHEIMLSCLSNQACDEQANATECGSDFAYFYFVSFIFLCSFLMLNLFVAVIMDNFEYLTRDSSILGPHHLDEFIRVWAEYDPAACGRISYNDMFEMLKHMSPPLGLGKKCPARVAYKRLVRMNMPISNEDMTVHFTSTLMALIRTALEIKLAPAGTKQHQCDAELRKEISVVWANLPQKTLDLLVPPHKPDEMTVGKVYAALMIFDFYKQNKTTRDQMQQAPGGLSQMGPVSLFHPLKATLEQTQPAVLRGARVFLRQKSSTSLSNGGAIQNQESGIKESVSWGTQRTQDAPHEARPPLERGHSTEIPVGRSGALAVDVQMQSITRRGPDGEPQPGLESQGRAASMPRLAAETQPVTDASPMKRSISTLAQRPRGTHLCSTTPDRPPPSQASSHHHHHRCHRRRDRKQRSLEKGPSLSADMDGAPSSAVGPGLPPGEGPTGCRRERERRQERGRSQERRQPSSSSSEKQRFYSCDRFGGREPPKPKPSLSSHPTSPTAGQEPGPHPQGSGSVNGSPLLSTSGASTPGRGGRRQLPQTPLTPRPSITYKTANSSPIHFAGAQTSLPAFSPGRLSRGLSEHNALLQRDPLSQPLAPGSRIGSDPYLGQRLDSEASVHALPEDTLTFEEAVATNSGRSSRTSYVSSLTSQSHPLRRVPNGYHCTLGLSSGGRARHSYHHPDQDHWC
T1 sequence (Q02410 whole entry): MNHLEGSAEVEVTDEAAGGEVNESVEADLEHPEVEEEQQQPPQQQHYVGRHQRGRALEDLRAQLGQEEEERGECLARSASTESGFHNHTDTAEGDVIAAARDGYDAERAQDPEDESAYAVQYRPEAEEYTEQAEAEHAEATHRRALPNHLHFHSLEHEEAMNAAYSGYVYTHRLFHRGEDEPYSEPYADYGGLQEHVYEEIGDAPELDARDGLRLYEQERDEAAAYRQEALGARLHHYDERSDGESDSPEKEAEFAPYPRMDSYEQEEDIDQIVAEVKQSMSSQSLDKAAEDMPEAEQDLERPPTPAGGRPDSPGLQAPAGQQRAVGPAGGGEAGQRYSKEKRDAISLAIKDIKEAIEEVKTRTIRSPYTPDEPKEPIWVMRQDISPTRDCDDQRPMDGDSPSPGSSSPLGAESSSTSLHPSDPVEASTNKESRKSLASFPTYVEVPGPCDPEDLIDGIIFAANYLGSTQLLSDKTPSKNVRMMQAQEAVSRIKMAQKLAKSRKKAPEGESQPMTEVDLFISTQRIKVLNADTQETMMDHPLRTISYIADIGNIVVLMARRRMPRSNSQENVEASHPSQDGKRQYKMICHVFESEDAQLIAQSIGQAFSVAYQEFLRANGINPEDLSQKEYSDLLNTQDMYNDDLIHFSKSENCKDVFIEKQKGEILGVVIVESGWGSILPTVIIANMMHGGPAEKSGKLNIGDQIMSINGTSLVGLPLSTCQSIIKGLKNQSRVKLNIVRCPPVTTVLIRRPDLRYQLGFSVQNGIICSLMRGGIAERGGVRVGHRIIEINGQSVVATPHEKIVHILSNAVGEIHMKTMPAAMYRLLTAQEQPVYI
Sequence of Acyl-homoserine lactone acylase PvdQ (Q9I194 24-193 limits assumed): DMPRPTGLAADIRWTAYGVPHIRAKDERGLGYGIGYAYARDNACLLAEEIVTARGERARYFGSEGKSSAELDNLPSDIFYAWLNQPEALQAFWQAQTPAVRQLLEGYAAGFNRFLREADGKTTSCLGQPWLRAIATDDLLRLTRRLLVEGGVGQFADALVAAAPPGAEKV
Sequence of Acyl-homoserine lactone acylase PvdQ (Q9I194 217-762 limits assumed): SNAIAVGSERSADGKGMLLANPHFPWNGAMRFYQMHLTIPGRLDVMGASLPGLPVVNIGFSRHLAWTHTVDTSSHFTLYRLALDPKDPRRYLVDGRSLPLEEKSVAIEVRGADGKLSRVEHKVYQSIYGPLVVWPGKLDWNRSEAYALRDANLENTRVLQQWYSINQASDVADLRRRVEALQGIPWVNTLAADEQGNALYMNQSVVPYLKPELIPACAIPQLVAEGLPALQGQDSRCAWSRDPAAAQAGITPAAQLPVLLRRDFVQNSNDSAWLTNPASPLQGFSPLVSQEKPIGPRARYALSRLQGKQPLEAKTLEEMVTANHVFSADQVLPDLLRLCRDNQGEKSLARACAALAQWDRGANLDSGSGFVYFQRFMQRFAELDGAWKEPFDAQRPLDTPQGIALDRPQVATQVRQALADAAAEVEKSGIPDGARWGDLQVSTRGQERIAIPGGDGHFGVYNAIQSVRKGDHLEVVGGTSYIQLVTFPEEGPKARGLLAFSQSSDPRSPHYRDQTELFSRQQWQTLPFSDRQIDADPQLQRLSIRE
Sequence of Glyceraldehyde-3-phosphate dehydrogenase (P04406 whole entry): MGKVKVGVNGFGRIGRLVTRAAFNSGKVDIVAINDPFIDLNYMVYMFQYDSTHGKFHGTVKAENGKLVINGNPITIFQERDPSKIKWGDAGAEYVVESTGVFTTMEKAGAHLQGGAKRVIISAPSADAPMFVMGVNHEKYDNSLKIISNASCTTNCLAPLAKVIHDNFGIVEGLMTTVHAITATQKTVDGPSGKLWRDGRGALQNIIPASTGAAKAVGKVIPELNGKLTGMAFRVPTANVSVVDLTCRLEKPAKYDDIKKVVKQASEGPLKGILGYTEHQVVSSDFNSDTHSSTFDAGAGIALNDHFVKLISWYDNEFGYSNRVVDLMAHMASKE
Sequence of Induced myeloid leukemia cell differentiation protein Mcl-1 (Q07820 whole entry): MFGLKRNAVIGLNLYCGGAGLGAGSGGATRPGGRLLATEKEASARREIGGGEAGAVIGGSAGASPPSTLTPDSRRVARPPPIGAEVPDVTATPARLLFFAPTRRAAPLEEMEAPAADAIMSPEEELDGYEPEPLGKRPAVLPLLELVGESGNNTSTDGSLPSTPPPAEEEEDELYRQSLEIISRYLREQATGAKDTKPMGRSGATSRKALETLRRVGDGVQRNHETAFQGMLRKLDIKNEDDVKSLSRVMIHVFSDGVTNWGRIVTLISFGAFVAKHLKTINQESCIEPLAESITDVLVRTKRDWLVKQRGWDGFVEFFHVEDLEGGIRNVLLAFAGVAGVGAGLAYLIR
Sequence of Neuropeptides B/W receptor type 1 (P48145 whole entry): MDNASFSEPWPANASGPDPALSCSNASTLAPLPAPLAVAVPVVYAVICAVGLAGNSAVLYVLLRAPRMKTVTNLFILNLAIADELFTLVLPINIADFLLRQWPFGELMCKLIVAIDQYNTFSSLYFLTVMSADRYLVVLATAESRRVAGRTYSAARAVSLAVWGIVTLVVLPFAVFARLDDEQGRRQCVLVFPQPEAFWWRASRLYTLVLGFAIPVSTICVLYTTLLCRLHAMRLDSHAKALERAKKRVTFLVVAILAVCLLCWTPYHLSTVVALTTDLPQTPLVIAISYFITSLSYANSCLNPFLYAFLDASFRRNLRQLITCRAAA

IC50 [1]: > 56.8 µM (inactive) | IC50 [2]: > 56.8 µM (inactive)
SMILES: COc1cccc(CCNC(=O)c2cc(-c3ccco3)nc3ccccc23)c1

SMILES: Cc1ccc(S(=O)(=O)n2c(N)nc3cc(C)c(C)cc32)cc1
IC50 [3]: > 20 µM (inactive) | IC50 [4]: > 20 µM (inactive) | IC50 [5]: > 20 µM (inactive) | IC50 [6]: > 5 µM (inactive)

IC50 [7]: > 100 µM (inactive) | IC50 [8]: > 100 µM (not active) | IC50 [9]: 3.41 µM (active)
SMILES: COc1ccccc1-c1nc(SCc2ccccc2F)n[nH]1

AC50 [10]: 8.18 µM (active)
SMILES: Cc1ccc2oc(-c3cccc(NC(=O)c4cc(-n5cnnc5)ccc4Cl)c3)nc2c1

IC50 [12]: 2.11 µM (active)
SMILES: COc1ccc(-c2sc(Nc3ccccc3)n[n+]2-c2ccc(F)cc2)c(C)c1C
CC50 [11]: 28.5 µM (active)

SMILES: CCOc1ccc(-c2cn3ccccc3n2)cc1
AC50 [13]: > 52 µM (inactive) | AC50 [14]: > 52 µM (inactive) | AC50 [15]: > 52 µM (inactive) | AC50 [16]: 4.5 µM (active) | AC50 [17]: 92.1 µM (active) | AC50 [18]: 5.05 µM (active)

EC50 [19]: > 20 µM (inactive)
SMILES: O=C(CN(Cc1cccs1)C(=O)c1ccccn1)NC1CCCCCC1

SMILES: Fc1cc(F)c2nc(Nc3nc4cc5c(cc4s3)OCO5)sc2c1
EC50 [20]: 18.6 µM (active) | Absolute IC50 (CHOP) [21]: 10 µM | IC50 [22]: > 66.6 µM (inactive) | IC50 [23]: 1.53 µM (active) | EC50 [24]: 17.3 µM (active) | IC50 [25]: 1.12 µM (active)

IC50 [26]: 2.5 µM (active) | IC50 [27]: 7 µM (active)
SMILES: CC(C)c1ccc(-n2ncc(Cl)c(Oc3ccc(N)cc3)c2=O)cc1
